Assays:
hNav1.7 = hNav1.7 (Homo sapiens, UniProt Q15858); test: cell-based; type: cell-based; conditions: Table 12; PatchXpress, tonic block; read-out: PX hNav1.7 Tonic IC50
hNav1.4 = hNav1.4 (Homo sapiens, UniProt P35499); test: cell-based; type: cell-based; conditions: Table 12; for IC50: PatchXpress, tonic block, read-out: PX hNav1.4 Tonic IC50; for Nav1.4/Nav1.7: ratio of PX tonic IC50 values
hNav1.4, sequence (P35499 whole entry): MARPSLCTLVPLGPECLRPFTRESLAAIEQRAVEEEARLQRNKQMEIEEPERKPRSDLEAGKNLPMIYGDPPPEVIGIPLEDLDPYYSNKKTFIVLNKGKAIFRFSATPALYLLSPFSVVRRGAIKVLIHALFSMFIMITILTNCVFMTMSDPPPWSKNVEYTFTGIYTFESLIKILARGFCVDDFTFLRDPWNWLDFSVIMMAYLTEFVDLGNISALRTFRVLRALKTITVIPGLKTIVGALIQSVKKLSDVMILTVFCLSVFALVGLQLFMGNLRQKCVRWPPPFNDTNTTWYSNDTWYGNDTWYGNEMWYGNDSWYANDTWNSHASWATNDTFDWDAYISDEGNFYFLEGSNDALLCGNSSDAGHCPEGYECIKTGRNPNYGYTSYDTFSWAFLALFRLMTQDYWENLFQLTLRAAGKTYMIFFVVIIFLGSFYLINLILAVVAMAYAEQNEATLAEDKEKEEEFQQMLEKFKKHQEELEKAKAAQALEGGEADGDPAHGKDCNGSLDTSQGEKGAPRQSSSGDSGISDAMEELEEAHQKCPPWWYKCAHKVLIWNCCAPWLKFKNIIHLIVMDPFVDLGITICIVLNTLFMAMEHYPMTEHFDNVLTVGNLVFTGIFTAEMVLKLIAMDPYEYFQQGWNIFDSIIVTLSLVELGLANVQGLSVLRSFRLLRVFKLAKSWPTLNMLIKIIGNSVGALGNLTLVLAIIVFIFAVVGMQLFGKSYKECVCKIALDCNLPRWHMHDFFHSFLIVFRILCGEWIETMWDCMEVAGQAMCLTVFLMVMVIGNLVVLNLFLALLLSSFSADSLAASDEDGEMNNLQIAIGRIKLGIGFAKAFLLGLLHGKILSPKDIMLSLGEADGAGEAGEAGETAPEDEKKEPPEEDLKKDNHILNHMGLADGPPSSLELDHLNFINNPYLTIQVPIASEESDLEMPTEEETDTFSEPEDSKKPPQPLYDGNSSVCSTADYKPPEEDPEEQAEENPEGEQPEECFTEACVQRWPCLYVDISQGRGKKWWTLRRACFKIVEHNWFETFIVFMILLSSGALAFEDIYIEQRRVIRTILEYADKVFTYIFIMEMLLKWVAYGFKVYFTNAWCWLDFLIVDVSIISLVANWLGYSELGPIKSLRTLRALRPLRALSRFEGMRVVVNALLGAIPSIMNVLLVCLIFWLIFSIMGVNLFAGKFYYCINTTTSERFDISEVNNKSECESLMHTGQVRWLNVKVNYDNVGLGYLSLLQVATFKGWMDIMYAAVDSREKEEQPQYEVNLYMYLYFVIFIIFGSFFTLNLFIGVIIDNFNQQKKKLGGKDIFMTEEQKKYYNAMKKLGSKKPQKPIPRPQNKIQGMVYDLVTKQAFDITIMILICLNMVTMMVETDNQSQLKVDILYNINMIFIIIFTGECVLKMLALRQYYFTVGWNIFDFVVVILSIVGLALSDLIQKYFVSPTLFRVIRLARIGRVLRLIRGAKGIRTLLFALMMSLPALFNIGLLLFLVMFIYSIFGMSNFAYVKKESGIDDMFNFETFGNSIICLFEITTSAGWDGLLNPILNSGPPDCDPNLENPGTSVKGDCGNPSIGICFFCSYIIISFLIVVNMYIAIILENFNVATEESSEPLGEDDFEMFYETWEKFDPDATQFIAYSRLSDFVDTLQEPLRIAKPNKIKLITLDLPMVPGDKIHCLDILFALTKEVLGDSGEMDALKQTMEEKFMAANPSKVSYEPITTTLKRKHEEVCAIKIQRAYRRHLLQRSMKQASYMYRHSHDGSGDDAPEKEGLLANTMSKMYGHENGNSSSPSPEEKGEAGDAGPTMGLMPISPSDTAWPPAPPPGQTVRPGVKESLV

hNav1.7, sequence (Q15858 whole entry): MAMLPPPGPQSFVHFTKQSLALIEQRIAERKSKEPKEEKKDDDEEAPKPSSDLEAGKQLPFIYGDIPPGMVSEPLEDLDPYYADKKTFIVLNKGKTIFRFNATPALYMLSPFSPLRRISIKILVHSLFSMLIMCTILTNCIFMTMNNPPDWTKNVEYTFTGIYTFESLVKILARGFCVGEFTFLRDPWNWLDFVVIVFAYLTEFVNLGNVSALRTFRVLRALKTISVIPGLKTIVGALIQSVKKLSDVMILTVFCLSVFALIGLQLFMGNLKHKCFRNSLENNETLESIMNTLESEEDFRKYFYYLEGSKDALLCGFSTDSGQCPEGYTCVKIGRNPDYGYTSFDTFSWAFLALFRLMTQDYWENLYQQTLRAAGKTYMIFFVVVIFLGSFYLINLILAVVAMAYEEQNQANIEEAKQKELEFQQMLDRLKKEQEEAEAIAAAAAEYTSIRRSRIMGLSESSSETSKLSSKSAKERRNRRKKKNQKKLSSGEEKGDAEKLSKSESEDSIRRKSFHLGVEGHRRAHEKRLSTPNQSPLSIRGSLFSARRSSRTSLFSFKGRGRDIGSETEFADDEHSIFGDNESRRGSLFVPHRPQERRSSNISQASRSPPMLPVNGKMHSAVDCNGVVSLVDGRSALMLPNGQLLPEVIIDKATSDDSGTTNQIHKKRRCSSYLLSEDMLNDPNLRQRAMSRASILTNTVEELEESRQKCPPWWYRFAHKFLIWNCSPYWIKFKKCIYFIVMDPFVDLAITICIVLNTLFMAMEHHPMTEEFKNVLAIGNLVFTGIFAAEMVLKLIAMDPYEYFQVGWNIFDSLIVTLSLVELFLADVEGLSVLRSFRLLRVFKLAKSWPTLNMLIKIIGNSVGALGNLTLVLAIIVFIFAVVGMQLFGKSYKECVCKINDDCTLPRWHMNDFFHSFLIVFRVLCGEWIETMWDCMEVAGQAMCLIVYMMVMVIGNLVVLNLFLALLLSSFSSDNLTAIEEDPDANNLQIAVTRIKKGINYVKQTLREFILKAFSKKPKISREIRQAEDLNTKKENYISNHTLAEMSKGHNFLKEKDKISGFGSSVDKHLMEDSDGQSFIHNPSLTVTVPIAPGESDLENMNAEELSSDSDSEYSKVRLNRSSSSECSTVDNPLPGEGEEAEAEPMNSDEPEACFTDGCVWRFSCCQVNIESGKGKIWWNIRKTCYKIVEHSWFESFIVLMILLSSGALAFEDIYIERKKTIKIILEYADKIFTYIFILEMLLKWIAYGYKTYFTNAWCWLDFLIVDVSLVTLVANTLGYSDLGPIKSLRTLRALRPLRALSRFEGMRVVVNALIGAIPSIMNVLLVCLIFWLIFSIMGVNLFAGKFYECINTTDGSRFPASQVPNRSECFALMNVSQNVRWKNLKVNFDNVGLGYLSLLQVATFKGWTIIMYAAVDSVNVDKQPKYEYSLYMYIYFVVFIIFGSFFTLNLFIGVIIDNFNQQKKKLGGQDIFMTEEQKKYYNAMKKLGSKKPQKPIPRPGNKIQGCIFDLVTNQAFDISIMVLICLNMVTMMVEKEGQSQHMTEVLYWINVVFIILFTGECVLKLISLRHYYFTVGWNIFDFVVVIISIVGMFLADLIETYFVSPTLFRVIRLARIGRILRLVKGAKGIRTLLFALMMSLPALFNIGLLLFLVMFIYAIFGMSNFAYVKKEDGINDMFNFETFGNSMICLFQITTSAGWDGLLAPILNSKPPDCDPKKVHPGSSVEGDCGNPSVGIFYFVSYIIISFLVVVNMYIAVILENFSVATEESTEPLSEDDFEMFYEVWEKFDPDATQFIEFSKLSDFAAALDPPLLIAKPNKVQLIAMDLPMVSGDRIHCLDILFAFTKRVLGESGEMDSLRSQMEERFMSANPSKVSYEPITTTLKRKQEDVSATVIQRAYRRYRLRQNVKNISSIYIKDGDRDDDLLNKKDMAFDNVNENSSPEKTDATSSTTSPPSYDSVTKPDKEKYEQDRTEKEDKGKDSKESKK

Row | SMILES | IC50 (hNav1.7) [nM] | IC50 (hNav1.4) [nM] | Nav1.4/Nav1.7 (hNav1.4)
1 | C#CC[C@@H]1NC(=O)[C@H](CC(=O)O)NC(=O)[C@@H]2CSSC[C@@H]3NC(=O)[C@H](CCCNC(=N)N)NC(=O)[C@H](CC(C)C)NC(=O)CNC(=O)[C@H](CCC(=O)O)NC(=O)[C@H](CSSC[C@H](NC(=O)[C@H](Cc4ccc(O)cc4)NC(=O)[C@@H](N)CC#N)C(=O)N[C@@H](CCC(N)=O)C(=O)N[C@@H](CCCCN)C(=O)N[C@@H](Cc4c[nH]c5ccccc45)C(=O)N[C@@H](CCCC)C(=O)N[C@@H](Cc4c[nH]c5ccccc45)C(=O)N[C@@H]([C@@H](C)O)C(=O)N2)NC(=O)[C@H](CSSC[C@@H](C(=O)N[C@@H](CCCNC(=N)N)C(=O)N[C@@H](CCCCN)C(=O)N[C@@H](CCC(=O)O)C(=O)N[C@H](C(N)=O)[C@@H](C)CC)NC(=O)[C@H](Cc2c[nH]c4ccccc24)NC(=O)[C@H](CC(C)C)NC(=O)[C@H](CCCCN)NC3=O)NC(=O)[C@H](C)NC(=O)[C@H](CCCNC(=N)N)NC(=O)[C@H](CCCCN)NC1=O [compound 520] | 0.193 | 517 | 2673
2 | C#CC[C@@H]1NC(=O)[C@H](CO)NC(=O)[C@H](CC(=O)O)NC(=O)[C@@H]2CSSC[C@@H]3NC(=O)[C@H](CCCNC(=N)N)NC(=O)[C@H](CC(C)C)NC(=O)CNC(=O)[C@H](CCC(=O)O)NC(=O)[C@H](CSSC[C@H](NC(=O)[C@H](Cc4ccc(O)cc4)NC(=O)[C@@H](N)CC#N)C(=O)N[C@@H](CCC(N)=O)C(=O)N[C@@H](CCCCN)C(=O)N[C@@H](Cc4c[nH]c5ccccc45)C(=O)N[C@@H](CCCC)C(=O)N[C@@H](Cc4c[nH]c5ccccc45)C(=O)N[C@@H]([C@@H](C)O)C(=O)N2)NC(=O)[C@H](CSSC[C@@H](C(=O)N[C@@H](CCCNC(=N)N)C(=O)N[C@@H](CCCCN)C(=O)N[C@@H](CCC(=O)O)C(=O)N[C@H](C(N)=O)[C@@H](C)CC)NC(=O)[C@H](Cc2c[nH]c4ccccc24)NC(=O)[C@H](CC(C)C)NC(=O)[C@H](CCCCN)NC3=O)NC(=O)[C@H](C)NC(=O)[C@H](CCCNC(=N)N)NC1=O [compound 521] | 1.48 | 92.1 | 62
3 | C#CC[C@H](N)C(=O)N[C@@H](Cc1ccc(O)cc1)C(=O)N[C@H]1CSSC[C@@H]2NC(=O)[C@@H]3CSSC[C@@H](C(=O)N[C@@H](CCCNC(=N)N)C(=O)N[C@@H](CCCCN)C(=O)N[C@@H](CC(C)C)C(=O)N[C@H](C(N)=O)[C@@H](C)CC)NC(=O)[C@H](Cc4c[nH]c5ccccc45)NC(=O)[C@H](CC(C)C)NC(=O)[C@H](CCCCN)NC(=O)[C@H](CSSC[C@H](NC(=O)[C@H]([C@@H](C)O)NC(=O)[C@H](Cc4c[nH]c5ccccc45)NC(=O)[C@H](CCCC)NC(=O)[C@H](Cc4c[nH]c5ccccc45)NC(=O)[C@H](CCCCN)NC(=O)[C@H](CCC(N)=O)NC1=O)C(=O)N[C@@H](CC(=O)O)C(=O)N[C@@H](CO)C(=O)N[C@@H](CCCCN)C(=O)N[C@@H](CCCNC(=N)N)C(=O)N[C@@H](C)C(=O)N3)NC(=O)[C@H](CCCNC(=N)N)NC(=O)[C@H](CC(C)C)NC(=O)CNC(=O)[C@H](CCC(=O)O)NC2=O [compound 655] | 2.91 | 25.9 | 9
4 | C#CC[C@H](N)C(=O)N[C@@H](Cc1ccc(O)cc1)C(=O)N[C@H]1CSSC[C@@H]2NC(=O)[C@@H]3CSSC[C@@H](C(=O)N[C@@H](CCCNC(=N)N)C(=O)N[C@@H](CCCCN)C(=O)N4CCC[C@H]4C(=O)N[C@H](C(N)=O)[C@@H](C)CC)NC(=O)[C@H](Cc4c[nH]c5ccccc45)NC(=O)[C@H](CC(C)C)NC(=O)[C@H](CCCCN)NC(=O)[C@H](CSSC[C@H](NC(=O)[C@H]([C@@H](C)O)NC(=O)[C@H](Cc4c[nH]c5ccccc45)NC(=O)[C@H](CCCC)NC(=O)[C@H](Cc4c[nH]c5ccccc45)NC(=O)[C@H](CCCCN)NC(=O)[C@H](CCC(N)=O)NC1=O)C(=O)N[C@@H](CC(=O)O)C(=O)N[C@@H](CO)C(=O)N[C@@H](CCCCN)C(=O)N[C@@H](CCCNC(=N)N)C(=O)N[C@@H](C)C(=O)N3)NC(=O)[C@H](CCCNC(=N)N)NC(=O)[C@H](CC(C)C)NC(=O)CNC(=O)[C@H](CCC(=O)O)NC2=O [compound 657] | 1.97 | 206 | 105
5 | C#CC[C@H](N)C(=O)N[C@@H](Cc1ccc(O)cc1)C(=O)N[C@H]1CSSC[C@@H]2NC(=O)[C@@H]3CSSC[C@@H](C(=O)N[C@@H](CCCNC(=N)N)C(=O)N[C@@H](CCCCN)C(=O)N[C@@H](CCC(=O)O)C(=O)N[C@H](C(N)=O)[C@@H](C)CC)NC(=O)[C@H](Cc4c[nH]c5ccccc45)NC(=O)[C@H](CC(C)C)NC(=O)[C@H](CCCCN)NC(=O)[C@H](CSSC[C@H](NC(=O)[C@H]([C@@H](C)O)NC(=O)[C@H](Cc4c[nH]c5ccccc45)NC(=O)[C@H](CCCC)NC(=O)[C@H](Cc4c[nH]c5ccccc45)NC(=O)[C@H](CCCCN)NC(=O)[C@H](CCC(N)=O)NC1=O)C(=O)N[C@@H](CC(=O)O)C(=O)N[C@@H](CO)C(=O)N[C@@H](CCC(=O)O)C(=O)N[C@@H](CCCNC(=N)N)C(=O)N[C@@H](C)C(=O)N3)NC(=O)[C@H](CCCNC(=N)N)NC(=O)[C@H](CC(C)C)NC(=O)CNC(=O)[C@H](CCCCN)NC2=O [compound 728] | 8.76 | 405 | 46
6 | C#CC[C@H](N)C(=O)N[C@@H](Cc1ccc(O)cc1)C(=O)N[C@H]1CSSC[C@@H]2NC(=O)[C@@H]3CSSC[C@@H](C(=O)N[C@@H](CCCNC(=N)N)C(=O)N[C@@H](CCCCN)C(=O)N[C@H](C(=O)N[C@H](C(N)=O)[C@@H](C)CC)[C@@H](C)CC)NC(=O)[C@H](Cc4c[nH]c5ccccc45)NC(=O)[C@H](CC(C)C)NC(=O)[C@H](CCCCN)NC(=O)[C@H](CSSC[C@H](NC(=O)[C@H]([C@@H](C)O)NC(=O)[C@H](Cc4c[nH]c5ccccc45)NC(=O)[C@H](CCCC)NC(=O)[C@H](Cc4c[nH]c5ccccc45)NC(=O)[C@H](CCCCN)NC(=O)[C@H](CCC(N)=O)NC1=O)C(=O)N[C@@H](CC(=O)O)C(=O)N[C@@H](CO)C(=O)N[C@@H](CCC(=O)O)C(=O)N[C@@H](CCCNC(=N)N)C(=O)N[C@@H](C)C(=O)N3)NC(=O)[C@H](CCCNC(=N)N)NC(=O)[C@H](CC(C)C)NC(=O)CNC(=O)[C@H](CCCCN)NC2=O [compound 729] | 1.87 | 7.6 | 4
7 | C#CC[C@H](N)C(=O)N[C@@H](Cc1ccc(O)cc1)C(=O)N[C@H]1CSSC[C@@H]2NC(=O)[C@@H]3CSSC[C@@H](C(=O)N[C@@H](CCCNC(=N)N)C(=O)N[C@@H](CCCCN)C(=O)N[C@H](C(=O)N[C@H](C(N)=O)[C@@H](C)CC)[C@@H](C)CC)NC(=O)[C@H](Cc4c[nH]c5ccccc45)NC(=O)[C@H](CC(C)C)NC(=O)[C@H](CCCCN)NC(=O)[C@H](CSSC[C@H](NC(=O)[C@H]([C@@H](C)O)NC(=O)[C@H](Cc4c[nH]c5ccccc45)NC(=O)[C@H](CCCC)NC(=O)[C@H](Cc4c[nH]c5ccccc45)NC(=O)[C@H](CCCCN)NC(=O)[C@H](CCC(N)=O)NC1=O)C(=O)N[C@@H](CC(=O)O)C(=O)N[C@@H](CO)C(=O)N[C@@H](CCC(=O)O)C(=O)N[C@@H](CCCNC(=N)N)C(=O)N[C@@H](C)C(=O)N3)NC(=O)[C@H](CCCNC(=N)N)NC(=O)[C@H](CC(C)C)NC(=O)CNC(=O)[C@H](CCC(=O)O)NC2=O [compound 730] | 1.19 | 37.2 | 31
